AC50 data for 28 compounds are collected here from patent US20260138961A1, “MODULATORS OF MITOCHONDRIAL DNA REPLICATION” (Pretzel Therapeutics, Inc., priority 2022, published 2026).

The term AC50 denotes the concentration at which the activity in the assay is half-maximal.

The target of the first test is T1, POLγA:G848S (Homo sapiens, UniProt P54098, G848S).
T1 sequence (P54098 1-1239 G848S): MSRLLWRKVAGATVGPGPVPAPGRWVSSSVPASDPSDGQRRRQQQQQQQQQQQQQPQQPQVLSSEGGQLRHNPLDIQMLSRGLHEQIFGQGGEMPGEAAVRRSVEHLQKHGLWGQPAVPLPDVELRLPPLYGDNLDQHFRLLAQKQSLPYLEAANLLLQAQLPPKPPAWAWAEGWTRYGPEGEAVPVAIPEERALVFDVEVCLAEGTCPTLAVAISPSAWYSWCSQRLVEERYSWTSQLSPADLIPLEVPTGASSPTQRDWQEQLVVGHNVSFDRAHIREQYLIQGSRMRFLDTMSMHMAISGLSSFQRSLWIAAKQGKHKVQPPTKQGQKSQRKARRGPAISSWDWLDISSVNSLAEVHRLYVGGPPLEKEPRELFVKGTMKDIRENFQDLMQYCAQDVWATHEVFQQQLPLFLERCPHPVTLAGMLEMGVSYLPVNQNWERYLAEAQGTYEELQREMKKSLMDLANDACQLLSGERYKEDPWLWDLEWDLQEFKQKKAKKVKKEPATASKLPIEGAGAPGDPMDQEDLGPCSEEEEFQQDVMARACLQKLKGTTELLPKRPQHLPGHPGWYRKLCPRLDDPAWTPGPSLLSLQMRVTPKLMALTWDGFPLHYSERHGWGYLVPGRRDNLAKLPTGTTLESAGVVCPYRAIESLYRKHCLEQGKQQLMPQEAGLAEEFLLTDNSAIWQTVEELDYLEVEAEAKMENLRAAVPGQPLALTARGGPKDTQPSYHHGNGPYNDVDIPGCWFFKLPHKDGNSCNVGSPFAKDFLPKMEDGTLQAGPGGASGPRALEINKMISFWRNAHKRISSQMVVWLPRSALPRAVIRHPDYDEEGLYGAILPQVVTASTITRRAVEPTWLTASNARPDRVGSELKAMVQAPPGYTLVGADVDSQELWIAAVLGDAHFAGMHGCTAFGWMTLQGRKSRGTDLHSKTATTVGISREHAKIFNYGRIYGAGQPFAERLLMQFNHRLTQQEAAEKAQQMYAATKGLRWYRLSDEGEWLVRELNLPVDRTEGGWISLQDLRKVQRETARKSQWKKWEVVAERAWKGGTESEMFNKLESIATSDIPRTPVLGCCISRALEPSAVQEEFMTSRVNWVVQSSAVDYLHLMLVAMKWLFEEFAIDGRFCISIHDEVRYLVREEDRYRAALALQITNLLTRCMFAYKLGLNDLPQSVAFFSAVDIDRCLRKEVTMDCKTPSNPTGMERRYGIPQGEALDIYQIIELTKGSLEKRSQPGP
T1 sequence (Q9UHN1 1-485 partner): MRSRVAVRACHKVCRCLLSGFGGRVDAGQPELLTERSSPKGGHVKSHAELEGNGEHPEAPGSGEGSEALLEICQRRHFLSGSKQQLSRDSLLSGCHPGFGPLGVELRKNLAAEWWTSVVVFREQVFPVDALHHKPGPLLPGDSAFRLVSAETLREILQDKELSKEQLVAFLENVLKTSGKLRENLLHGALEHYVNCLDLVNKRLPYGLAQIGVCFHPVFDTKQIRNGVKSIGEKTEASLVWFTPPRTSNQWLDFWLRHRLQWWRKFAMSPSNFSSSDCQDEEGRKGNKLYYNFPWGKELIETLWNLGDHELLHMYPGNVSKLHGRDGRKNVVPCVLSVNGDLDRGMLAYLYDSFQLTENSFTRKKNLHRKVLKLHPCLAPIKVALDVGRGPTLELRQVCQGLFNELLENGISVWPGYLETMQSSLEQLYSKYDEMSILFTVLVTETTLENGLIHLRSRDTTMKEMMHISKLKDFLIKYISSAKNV
As to the kind of experiment: DNA polymerization assay, POLγA:G848S mutant. It is filed as biochemical. Conditions: G848S AC50, stimulation of polymerase activity, primed M13mp18 ssDNA, 37° C. 2 hours.
Compound `Cc1cc(S(=O)(=O)Nc2noc(-c3ccccc3)n2)c(C)cc1Cl` [Example 142, 4-chloro-2,5-dimethyl-N-(5-phenyl-1,2,4-oxadiazol-3-yl)benzenesulfonamide] had an AC50 greater than 100 µM.

Still in this test, the particulars now being: stimulation of polymerase activity, primed M13mp18 ssDNA, 37° C. 2 hours; read-out: G848S AC50.
Consider `Cc1cc(S(=O)(=O)Nc2cccc(C(=O)N3CCc4ncnc(C)c4C3)c2)c(C)cc1Cl` [Example 114, 4-chloro-2,5-dimethyl-N-(3-(4-methyl-5,6,7,8-tetrahydropyrido [4,3-d]pyrimidine-6-carbonyl)phenyl)benzenesulfonamide], for which the half-maximal activity concentration (AC50) amounted to 50 µM. `O=S(=O)(Nc1csc(-c2ccccc2)n1)c1ccc(F)cc1Cl` [Example 126, 2-chloro-4-fluoro-N-(2-phenylthiazol-4-yl)benzenesulfonamide]: the AC50 was greater than 100 µM. With `Cc1ccc(C)c(S(=O)(=O)Nc2cccc(C(=O)NCC3CC3)c2)c1` [Example 4, N-(cyclopropylmethyl)-3-((2,5-dimethylphenyl)sulfonamido)benzamide], the AC50 is 33 µM.

On to `Cc1cc(S(=O)(=O)Nc2cccc(C(=O)N3CCc4cn[nH]c4C3)c2)c(C)cc1Cl` [Example 107, 4-chloro-2,5-dimethyl-N-(3-(4,5,6,7-tetrahydro-1H-pyrazolo[3,4-c]pyridine-6-carbonyl)phenyl)benzenesulfonamide], for which the AC50 was found to be 7 µM. With “(R)-2,5-dimethyl-N-(3-(3-methylmorpholine-4-carbonyl)phenyl)benzenesulfonamide [Example 1]”, the AC50 was 18 µM. On to `Cc1cnc(-c2ccc(Cl)c(NS(=O)(=O)c3cc(C)c(Cl)cc3C)c2)s1` [Example 102, 4-chloro-N-(2-chloro-5-(5-methylthiazol-2-yl)phenyl)-2,5-dimethylbenzenesulfonamide], for which the AC50 worked out at 0.4 µM. Consider `Cc1cc(S(=O)(=O)Nc2cccc(C(=O)N3CCC[C@H]3C)c2)ccc1Cl` [Example 117, (R)-4-chloro-3-methyl-N-(3-(2-methylpyrrolidine-1-carbonyl)phenyl)benzenesulfonamide], for which the AC50 was greater than 100 µM. Consider `Cc1cc(S(=O)(=O)Nc2cccc(C(=O)N(C)C(C)CO)c2)c(C)cc1Cl` (single isomer, unassigned) [Example 14, 3-((4-chloro-2,5-dimethylphenyl)sulfonamido)-N-(1-hydroxypropan-2-yl)-N-methylbenzamide], for which the AC50 is 16 µM. With `Cc1cc(S(=O)(=O)N[C@@H]2CCCN(C(=O)c3ccccc3)C2)c(C)cc1Cl` [Example 150, (R)-N-(1-benzoylpiperidin-3-yl)-4-chloro-2,5-dimethylbenzenesulfonamide], the half-maximal activity concentration (AC50) is greater than 100 µM. For the compound `Cc1cc(S(=O)(=O)N[C@@H]2CCCN(C(=O)[C@@H]3CCCN3C)C2)c(C)cc1Cl` [Example 104, 4-chloro-2,5-dimethyl-N-((R)-1-(methyl-L-prolyl)piperidin-3-yl)benzenesulfonamide], the AC50 turned out to be 47 µM. Consider `Cc1cnc(-c2cc(NS(=O)(=O)c3cc(C)c(Cl)cc3C)ccc2Cl)s1` [Example 111, 4-chloro-N-(4-chloro-3-(5-methylthiazol-2-yl)phenyl)-2,5-dimethylbenzenesulfonamide], for which the AC50 is greater than 100 µM. Regarding `Cc1ccc(C)c(S(=O)(=O)Nc2cccc(C(=O)N3CCCC[C@@H]3C)c2)c1` [Example 6, (S)-2,5-dimethyl-N-(3-(2-methylpiperidine-1-carbonyl)phenyl)benzenesulfonamide], the half-maximal activity concentration (AC50) was 30 µM. For the compound `Cc1cc(S(=O)(=O)Nc2cccc(C(=O)N3CCCC3)c2)c(C)cc1Cl` [Example 119, 4-chloro-2,5-dimethyl-N-(3-(pyrrolidine-1-carbonyl)phenyl) benzenesulfonamide], the AC50 was 2 µM. Consider `Cc1cc(S(=O)(=O)Nc2cccc(C(=O)N(C(C)C)C3COC3)c2)c(C)cc1Cl` [Example 112, 3-((4-chloro-2,5-dimethylphenyl)sulfonamido)-N-isopropyl-N-(oxetan-3-yl)benzamide], for which the AC50 was found to be 40 µM. For the compound `Cc1cc(F)ccc1S(=O)(=O)Nc1csc(-c2ccccc2)n1` [Example 124, 4-fluoro-2-methyl-N-(2-phenylthiazol-4-yl)benzenesulfonamide], the half-maximal activity concentration (AC50) came to 2 µM.

For the compound `Cc1cc(S(=O)(=O)Nc2cccc(-c3ncc(C#N)s3)c2)c(C)cc1Cl` [Example 96, 4-chloro-N-(3-(5-cyanothiazol-2-yl)phenyl)-2,5-dimethylbenzenesulfonamide], the AC50 was 4 µM. Still for that read-out and setting: under `Cc1cc(S(=O)(=O)Nc2cccc(-c3ccn(C)n3)c2)c(C)cc1Cl` [Example 18, 4-chloro-2,5-dimethyl-N-(3-(1-methyl-1H-pyrazol-3-yl)phenyl)benzenesulfonamide] stands 8 µM; under `CNC(=O)c1cnc(-c2cccc(NS(=O)(=O)c3cc(C)c(Cl)cc3C)c2)s1` [Example 93, 2-(3-((4-chloro-2,5-dimethylphenyl)sulfonamido)phenyl)-N-methylthiazole-5-carboxamide], 9 µM; under `Cc1cc(S(=O)(=O)N[C@@H]2CCCN(c3ccccc3)C2)c(C)cc1Cl` [Example 149, (R)-4-chloro-2,5-dimethyl-N-(1-phenylpiperidin-3-yl)benzenesulfonamide], greater than 100 µM. Take `Cc1cc(S(=O)(=O)Nc2cccc(C(=O)N3C[C@H](C)[C@@H](N)C3)c2)c(C)cc1Cl` [Example 108, N-(3-((3R,4S)-3-amino-4-methylpyrrolidine-1-carbonyl)phenyl)-4-chloro-2,5-dimethylbenzenesulfonamide]: the AC50 is greater than 100 µM. In the case of `Cc1cc(S(=O)(=O)Nc2cccc(-c3ncc(-c4nnn[nH]4)s3)c2)c(C)cc1Cl` [Example 97, N-(3-(5-(1H-tetrazol-5-yl)thiazol-2-yl)phenyl)-4-chloro-2,5-dimethylbenzenesulfonamide], the AC50 is greater than 100 µM. As to `Cc1cnc(-c2cc(NS(=O)(=O)c3cc(C)c(Cl)cc3C)ccc2C)s1` [Example 103, 4-chloro-2,5-dimethyl-N-(4-methyl-3-(5-methylthiazol-2-yl)phenyl)benzenesulfonamide], the concentration at half-maximal activity (AC50) came out at 9 µM. On the same count and under the same terms, the figure for `Cc1cc(S(=O)(=O)Nc2cccc(-c3ncco3)c2)c(C)cc1Cl` [Example 17, 4-chloro-2,5-dimethyl-N-(3-(oxazol-2-yl)phenyl)benzenesulfonamide] is 6 µM; for `Cc1cc(S(=O)(=O)Nc2cccc(C(=O)N3CCC[C@H]3C)c2)c(C)cc1Cl` [Example 10, (R)-4-chloro-2,5-dimethyl-N-(3-(2-methylpyrrolidine-1-carbonyl)phenyl)benzenesulfonamide] it is 3 µM; for `Cc1ccc(C)c(S(=O)(=O)Nc2cccc(C(=O)N3CCCCC3)c2)c1` [Example 3, 2,5-dimethyl-N-(3-(piperidine-1-carbonyl)phenyl)benzene sulfonamide] it is 31 µM.

For `O=S(=O)(Nc1csc(-c2ccccc2)n1)c1ccc(C(F)(F)F)cc1` [Example 127, N-(2-phenylthiazol-4-yl)-4-(trifluoromethyl)benzenesulfonamide], the AC50 is greater than 100 µM. Regarding `Cc1cc(S(=O)(=O)Nc2cccc(C(=O)N3CCCC4(CC4)C3)c2)c(C)cc1Cl` [Example 105, N-(3-(5-azaspiro[2.5]octane-5-carbonyl)phenyl)-4-chloro-2,5-dimethylbenzenesulfonamide], the AC50 came to 9 µM.
